Source: patent US20250011484A1, “METHODS FOR PREPARING METALLOCENE COMPOUNDS” (Chevron Phillips Chemical Company LP, priority 2023, published 2025)

Key:
[1] = Solubility of metallocenes in 1-decene; type: physicochemical; details: ambient temperature (21° C.), visual inspection for solids or haze
Experimental: Additional portions of the desired metallocenes were then added in increments of 3-4 mg and the mixture was allowed to stir for 30 minutes after each addition at ambient temperature (21° C.). The resulting mixtures were visually inspected for solids or significant haze. Metallocenes were considered soluble if significant haze or solids were not observed.

[2] = Metallocene-catalyzed oligomerization of 1-decene; details: 1-decene 675 g, 110° C., 1 hour, 5 mg metallocene, CTSO, TIBA, hydrogen
Experimental: Metallocene-catalyzed oligomerizations were performed using MET-A and MET-D as follows. Generally, 1-decene was oligomerized to an oligomer product of dimers, trimers, and tetramers in the presence of MET-A or MET-D, as noted in Table II below. For Examples 8-9, a 1-gallon batch reactor was charged with 675 g of 1-decene. A syringe was charged with CTSO (0.750 g), TIBA (1.3 mL of a 1.0 M hexane solution), and metallocene (5 mg). The chemically treated solid oxide (CTSO) was a fluorided silica-coated alumina (60:40 alumina:silica by weight) containing 4 wt. % F and having a d50 average particle size of 35 microns, a BET surface area of 450 m^2/g, and a pore volume of 1.1 mL/g. The catalyst mixture was shaken to mix and was then charged to the reactor under a nitrogen purge. The reactor was heated to 110° C. while stirring at 600-900 rpm. […]
The reaction mixture was then filtered and analyzed by gas chromatography to determine the yield of oligomer product formed in the reaction mixture, and to determine the relative amount of certain oligomers within the oligomer product (e.g., the trimer:tetramer weight ratio). […]
The distribution of olefin end groups was determined using ^1H NMR on a Bruker 300 MHz NMR. Spectra were recorded in CDCl3 and are reported relative to SiMe4 as determined by reference to the residual ^1H solvent peak. […]

[3] = Ethylene/1-hexene polymerization with metallocene catalyst compositions
Experimental: Polymerization experiments employing catalyst compositions comprising MET-A, MET-B, MET-C, MET-D, MET-E, and MET-F were conducted as follows. Unless otherwise indicated, the polymerization experiments used in the following examples were conducted for […] in a one-gallon (3.8 L) stainless-steel autoclave reactor containing isobutane as diluent. A syringe was charged with 250 mg solid activator-support, 2 mL hexane, 0.5 mL of 1M TIBA (in hexane) and 2.0 mg metallocene (MET-A, MET-B, MET-C, MET-D, MET-E, or MET-F, as noted in Tables III and IV) in that order. The slurry was charged to the reactor under an isobutane purge. The reactor was sealed, charged with 2 L of isobutane, and heated to 80° C. Ethylene was charged to the reactor and fed on demand to maintain the target pressure of 320 psig (2.2 MPa). The reactor was maintained at the target temperature throughout the experiment by an automated heating-cooling system. After venting of the reactor, purging, and cooling, the resulting polymer product was dried under reduced pressure. For Examples 40-41, the polymerization temperature was 90° C., and ethylene pressure was maintained at 390 psig ethylene, with a 1-hexene feed ratio of 20 wt. % vs. ethylene.

| Compound | Solubility [1] [wt. %] | Activity [2] | Support Activity ([3]; 1-hexene 7.5 g, 80° C., 320 psig, 30 min, isobutane, TIBA) | Support Activity ([3]; 1-hexene 12 g, 80° C., 320 psig, 30 min, isobutane, TIBA) | Support Activity ([3]; 1-hexene 17.5 g, 80° C., 320 psig, 30 min, isobutane, TIBA) | Support Activity ([3]; 1-hexene 30 g, 80° C., 320 psig, 30 min, isobutane, TIBA) | Support Activity ([3]; Table IV, 1-hexene 49 g, 90° C., 390 psig ethylene, 1-hexene feed ratio 20 wt. %) [g/g/h] | Support Activity ([3]; Table IV, 1-hexene 51 g, 90° C., 390 psig ethylene, 1-hexene feed ratio 20 wt. %) [g/g/h] |
| --- | --- | --- | --- | --- | --- | --- | --- | --- |
| Fc1c(F)c(F)c(C[c-]2ccc3ccccc32)c(F)c1F.[Cl-].[Cl-].[Zr+4].c1cc[cH-]c1 (stereo not drawn) [MET-A] | <0.1 | 75,060 g/(g*h) | 1,920 g/(g*h) | 1,776 g/(g*h) | 1,872 g/(g*h) | 2,144 g/(g*h) | 2937 |  |
| CCCC[c-]1cccc1.Fc1c(F)c(F)c(C[c-]2ccc3ccccc32)c(F)c1F.[Cl-].[Cl-].[Zr+4] (stereo not drawn) [MET-G] | 0.4 |  |  |  |  |  |  | 1392 |
